{"source": "patent US9433553B2", "about": "“Device and method for prevention and treatment of deep venous thrombosis” (Fred Herz Patents LLC, priority 2001, dated 2016)", "origin": "cited, not measured here", "key": {"thrombin": {"target": "thrombin (Homo sapiens, UniProt P00734)", "conditions": "synthetic peptides of the thrombin receptor"}, "[1]": {"tested_on": "patients undergoing elective total hip replacement"}, "[2]": {"tested_on": "patients undergoing knee arthroplasty"}, "[3]": {"tested_on": "patients having surgery after hip fracture", "conditions": "aspirin treated group; placebo 46%"}, "[4]": {"tested_on": "experimental thrombus in the rabbit jugular vein"}, "[5]": {"tested_on": "stasis induced thrombosis", "conditions": "rabbit; 100% without"}, "[6]": {"tested_on": "patients undergoing radical prostatectomy"}, "[7]": {"tested_on": "patients with deep vein thrombosis", "conditions": "for patients who developed pulmonary embolism: APTT 50-70 seconds, acute deep vein thrombosis"}, "[8]": {"tested_on": "patients with spinal cord injury", "conditions": "Green (1991)"}, "[9]": {"tested_on": "patients who underwent elective general surgery"}, "[10]": {"conditions": "total hip replacement, no placebo group"}, "[11]": {"conditions": "349 patients undergoing total hip replacement, dose adjusted"}, "[12]": {"conditions": "665 patients, fixed doses, elective total hip replacement"}, "[13]": {"conditions": "subcutaneous, adjusted to APTT 1.5-2 times pretreatment, 66 patients"}, "[14]": {"conditions": "4,498 general surgery patients randomized to LMWH or placebo"}}, "note": "Like-named read-outs stand apart in the source and are kept apart here."}
{"molecule": "38-45: synthetic peptide corresponding to the thrombin receptor cleavage site (residues 38-45) (LDPRSFLL; UniProt P25116 38-45, looked up, fragment) [Peptide 38-45]", "values": [{"measurement": "inhibition of the chromogenic substrate activity of thrombin", "setting": "thrombin", "value": "competitive inhibitors"}]}
{"molecule": "38-64: synthetic peptide corresponding to the covalently associated domains (residues 38-64) of the thrombin receptor (LDPRSFLLRNPNDKYEPFWEDEEKNES; UniProt P25116 38-64, looked up, fragment) [Peptide 38-64]", "values": [{"measurement": "inhibition of the chromogenic substrate activity of thrombin", "setting": "thrombin", "value": "competitive inhibitors"}]}
{"molecule": "CC(=O)CC(c1ccccc1)c1c(O)c2ccccc2oc1=O", "note": "(stereo not shown) [Warfarin]", "values": [{"measurement": "incidence of DVT", "setting": "[1]; Bailey et al (1991), hip replacement patients, low dose warfarin", "value": 26.6, "unit": "%"}, {"measurement": "incidence of proximal vein thrombosis", "setting": "[1]; [10]", "value": 3, "unit": "%"}, {"measurement": "total incidence of DVT", "setting": "[1]; [10]", "value": 31, "unit": "%"}, {"measurement": "incidence of thigh vein thrombi", "setting": "[2]; knee arthroplasty / total knee replacement, 48 patients", "value": 6, "unit": "%"}, {"measurement": "overall incidence of DVT", "setting": "[2]; knee arthroplasty / total knee replacement, 48 patients, no placebo group", "value": 33, "unit": "%"}, {"measurement": "patients having calf thrombi", "setting": "[2]; total knee replacement, 48 patients", "value": 29, "unit": "%"}]}
{"molecule": "CC(=O)Oc1ccccc1C(=O)O", "note": "[aspirin]", "values": [{"measurement": "incidence of DVT", "setting": "[3]", "value": 42, "unit": "%"}]}
{"molecule": "Ac(D)-Phe-Pro-bro-Arg [DuP 714]", "values": [{"measurement": "fibrin accretion on an experimental thrombus", "setting": "[4]; rabbit jugular vein", "value": "effectively inhibited"}, {"measurement": "systemic anticoagulation", "setting": "[4]; rabbit jugular vein model", "value": "little systemic anticoagulation"}, {"measurement": "incidence of thrombosis", "setting": "[5]", "value": 33, "unit": "%"}]}
{"molecule": "enoxaparin", "values": [{"measurement": "proximal vein thrombi", "setting": "[1]; Turpie (1991), fixed dose, elective total hip replacement, placebo 20%", "value": 4, "unit": "%"}, {"measurement": "rate of DVT", "setting": "[1]; Turpie (1991), fixed dose, elective total hip replacement, placebo 42%", "value": 12, "unit": "%"}]}
{"molecule": "heparin", "values": [{"measurement": "bleeding complications", "setting": "[6]; mini-dose heparin treated group", "value": "unacceptably high"}, {"measurement": "incidence of pulmonary emboli", "setting": "[6]; mini-dose heparin, 11% without", "value": "none"}, {"measurement": "protection against postoperative DVT, adjusted versus fixed low dose", "setting": "[1]; 100 patients, hip replacement or fractured neck of femur, p=0.017", "value": "Significant improvement"}, {"measurement": "incidence of DVT", "setting": "[1]; [11]", "value": 16, "unit": "%"}, {"measurement": "incidence of DVT", "setting": "[1]; [12]", "value": 23.2, "unit": "%"}, {"measurement": "rate of proximal vein thrombi", "setting": "[1]; [12]", "value": 6.5, "unit": "%"}, {"measurement": "bleeding, adjusted versus fixed dose", "setting": "[1]; Leyvraz et al (1983)", "value": "No differences"}, {"measurement": "patients who developed DVT", "setting": "[1]; Leyvraz et al (1983), 38 patients, adjusted dose (APTT 31.5-36 seconds)", "value": 13, "unit": "%"}, {"measurement": "patients who developed DVT", "setting": "[1]; Leyvraz et al (1983), 41 patients, fixed dose of 3500 U every eight hours", "value": 39, "unit": "%"}, {"measurement": "incidence of DVT left by low dose heparin treatment", "setting": "[1]; total hip and total knee replacement patients", "value": "around 25%"}, {"measurement": "effectiveness of low dose heparin", "setting": "intracerebral hemorrhage", "value": "ineffective"}, {"measurement": "patients with recurrent venous thromboembolism diagnosed objectively", "setting": "[7]; Prandoni et al (1992), similar study, 85 patients", "value": 14, "unit": "%"}, {"measurement": "patients with improved mean Marder score", "setting": "[7]; adjusted dose intravenous, 49 patients", "value": 61, "unit": "%"}, {"measurement": "major bleeding associated with initial therapy", "setting": "[7]; adjusted dose intravenous, continuous infusion", "value": 5, "unit": "%"}, {"measurement": "incidence of new episodes of venous thromboembolism", "setting": "[7]; adjusted dose intravenous, continuous infusion, initial treatment of proximal vein thrombosis", "value": 6.9, "unit": "%"}, {"measurement": "patients who developed pulmonary embolism", "setting": "[7]; adjusted subcutaneous, 47 patients", "value": 10.6, "unit": "%"}, {"measurement": "patients who developed pulmonary embolism", "setting": "[7]; continuous intravenous, 49 patients", "value": 10.2, "unit": "%"}, {"measurement": "rate of hemorrhagic complications", "setting": "[7]; subcutaneous and intravenous groups, no difference", "value": 9.8, "unit": "%"}, {"measurement": "patients with improvement", "setting": "[7]; [13]", "value": 48, "unit": "%"}, {"measurement": "patients with increase in thrombus size", "setting": "[7]; [13]", "value": 18, "unit": "%"}, {"measurement": "patients with bleeding", "setting": "[8]; adjusted (higher) dose", "value": 24, "unit": "%"}, {"measurement": "thromboembolism", "setting": "[8]; dose adjusted to APTT 1.5 times control, mean 13,200 U every 12 hours", "value": 7, "unit": "%"}, {"measurement": "patients with bleeding", "setting": "[8]; fixed dose group", "value": "none"}, {"measurement": "thromboembolism", "setting": "[8]; fixed dose of 5000 U subcutaneously every 12 hours, 29 patients", "value": 31, "unit": "%"}, {"measurement": "reduction of postoperative death from pulmonary emboli", "setting": "[9]; low dose heparin", "value": 65, "unit": "%"}, {"measurement": "subclinical thrombi prevented", "setting": "[9]; low dose heparin, thrombi found by leg scanning after elective general surgery", "value": "approximately 65%"}]}
{"molecule": "low molecular weight heparin [LMWH]", "values": [{"measurement": "incidence of DVT", "setting": "[1]; [11]", "value": 12.6, "unit": "%"}, {"measurement": "incidence of DVT", "setting": "[1]; [12]", "value": 19.4, "unit": "%"}, {"measurement": "rate of proximal vein thrombi", "setting": "[1]; [12]", "value": 5.4, "unit": "%"}, {"measurement": "reduction of incidence of DVT", "setting": "[1]; elective total hip replacement, 56.6% to 15.5%", "value": 74, "unit": "%"}, {"measurement": "incidence of DVT", "setting": "[1]; elective total hip replacement, without LMWH 56.6%", "value": 15.5, "unit": "%"}, {"measurement": "major bleeding compared to placebo", "setting": "[9]; 4,498 general surgery patients", "value": "No difference"}, {"measurement": "postoperative wound hematomas and transfusion requirements compared to placebo", "setting": "[9]; 4,498 general surgery patients", "value": "increase in postoperative wound hematomas and transfusion requirements"}, {"measurement": "overall mortality", "setting": "[9]; [14]", "value": 0.36, "unit": "%"}, {"measurement": "thromboembolic mortality", "setting": "[9]; [14]", "value": 0.09, "unit": "%"}, {"measurement": "incidence of DVT", "setting": "[9]; Ockelford et al (1989), 183 patients, LMWH or placebo", "value": 4.2, "unit": "%"}, {"measurement": "efficacy compared with standard heparin", "setting": "[9]; seven studies in general surgery patients", "value": "same efficacy"}, {"measurement": "reduction of incidence of proximal vein thrombi", "setting": "[2]; knee arthroplasty or tibial osteotomy", "value": 100, "unit": "%"}, {"measurement": "reduction of incidence of DVT", "setting": "[2]; knee arthroplasty or tibial osteotomy, every 12 hours", "value": 71, "unit": "%"}, {"measurement": "incidence of DVT", "setting": "[2]; knee arthroplasty or tibial osteotomy, every 12 hours, placebo 65%", "value": 19, "unit": "%"}, {"measurement": "incidence of proximal vein thrombi", "setting": "[2]; knee arthroplasty or tibial osteotomy, placebo 19%", "value": "none"}]}
